Experimental findings from patent US7094909B2, “HIV protease inhibitors, compositions containing the same, their pharmaceutical uses and materials for their synthesis” (priority 2001, dated 2006) are described below.

Values joined by “and” are separate entries in the source; they are usually repeats but may differ in a detail not shown here. Equal values may be shown once. Read-outs that look alike come from different tables or passages of the source.

In experiment [1] the test system is HIV-1 (HIV-1 RF, HIV-1 NL4-3) in CEM-SS / MT-2 cells. Kind of experiment: Cytopathic effect (CPE) inhibition assay (XTT/MTT dye reduction). The format is cell-based. An outline of the steps:
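CEM-SS or MT-2 cells were infected with HIV-1 RF or NL4-3 (moi 0.025–0.819) and plated at 2×10^4 cells/well with half-log compound dilutions for 6 days. Viability was read by XTT formazan at 450 nm after 4 h. EC50 restores formazan to 50% of uninfected untreated cells, CC50 halves it in uninfected cells, and TI = CC50/EC50.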

Experiment [2] deals with T1, HIV-1 protease (Q7S mutant form) (Human immunodeficiency virus type 1 group M subtype B, UniProt P04585, Q495S).
T1 construct: made in house
Kind of experiment: HIV-1 Protease RET assay. Format: biochemical. An outline of the steps:
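Q7S HIV-1 protease, refolded from urea, 2 nM active dimer with 5 μM EDANS/DABCYL peptide cleaved at Tyr-Pro; fluorescence 340/490 nm. 12 min at 37 °C in 0.1M sodium acetate pH 4.8, 1M NaCl, 10% DMSO. Ki from Morrison tight-binding fit.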

The subject of experiment [3] is HIV-1 NL4-3 or HIV-1 NL4-3(I84V/L90M). The experiment is described as follows: Susceptibility assay, p24 ELISA in infected MT-2 cells. The format is cell-based. The note with it: Human immunodeficiency virus 1, NL43, MT2, read-out: EC50 or IC50 (mM), values without asterisk (EC50). How it is done: T-cell lines, CEM-SS, and MT-2, and viruses HIV-1 RF and HIV-1 NL4-3 (pNL4-3) were obtained from the National Institutes of Health (AIDS Research and Reference Reagent Program, Bethesda, Md.).
Compounds were tested in phenotypic susceptibility assays at Virologic, Inc., (See Petropoulos C. J., Parkin N. T., Limoli K. L., Lie Y. S., Wrin T., Huang W., Tian H., Smith D., Winslow G. A., Capon D J, Whitcomb J M. 2000, “A novel phenotypic drug susceptibility assay for human immunodeficiency virus type 1,” Antimicrob Agents Chemother 44(4):920–928) or using the assay described here. MT-2 cells were infected with either HIV-1 NL4-3 or HIV-1 NL4-3([…]) and incubated in the presence of serial 0.5 log dilutions of test compounds. Three days later, culture supernatants were collected and virus production, as determined by p24 ELISA, was assayed. Percent inhibition was calculated as p24 concentration in compound-treated samples as compared to infected, compound-free controls. Inhibition of viral replication is determined by measuring reduction in HIV p24 present in the culture supernatant, using a Beckman-Coulter p24HIV-1 Ag EIA kit and following the supplied protocol. Absorbance is read on a MRX microplate reader (Dynex Technologies). The EC50 was calculated as the concentration of compound that effected a decrease in the p24 production by infected, compound-treated cells to 50% of that produced by infected, compound-free cells.

The mark [4] stands for this setting: Human immunodeficiency virus 1, NL43, read-out: Ave CPE EC50.
[5] abbreviates: Ave. Ki (nM), RET assay, Q7S enzyme, Morrison tight binding fit.
Where [6] appears, read: Human immunodeficiency virus 1, NL43, unit inferred, read-out: EC50.

Turning to `Cc1c(O)cccc1C(=O)N[C@@H](Cc1ccccc1)[C@H](O)C(=O)N1CSC2(CCC2)[C@H]1C(=O)N[C@@H]1C=CCCC1` [Example C39, (R)-7-((2S,3S)-2-Hydroxy-3-{[1-(3-hydroxy-2-methyl-phenyl)-methanoyl]-amino}-4-phenyl-butanoyl)-5-thia-7-aza-spiro[3.4]octane-8-carboxylic acid (S)-cyclohex-2-enylamide], the EC50 is 13 nM in experiment [1] (setting [4]) and 0.000404 mM in experiment [3]. The same compound had a Ki in experiment [2] (setting [5]) below 0.1 nM.
On to `Cc1ccccc1C(=O)N[C@@H](Cc1ccccc1)[C@H](O)C(=O)N1CSC(C)(C)[C@H]1C(=O)N[C@@H]1C=CCCC1` [Example B80, (R)-3-{(2S,3S)-2-Hydroxy-4-phenyl-3-[(1-o-tolyl-methanoyl)-amino]-butanoyl}-5,5-dimethyl-thiazolidine-4-carboxylic acid (S)-cyclohex-2-enylamide], for which the EC50 stood at 419 nM in experiment [1] (setting [4]) and 0.00138 mM in experiment [3]. Besides, in experiment [2] (setting [5]), the Ki came out at 0.15 nM.
Regarding `Cc1ccccc1CNC(=O)[C@@H]1CC(F)(F)CN1C(=O)[C@@H](O)[C@H](Cc1ccccc1)NC(=O)COc1c(C)cccc1C` (stereo in doubt) [Example C40, 1-{3-[2-(2,6-Dimethyl-phenoxy)-acetylamino]-2-hydroxy-4-phenyl-butyryl}-4,4-difluoro-pyrrolidine-2-carboxylic acid 2-methyl-benzylamide], in experiment [2] (setting [5]), the Ki is 1.8 nM and 0.82 nM. Moreover, in experiment [3], the EC50 is 0.0018 mM.
As to `CCCNC(=O)[C@H]1N(C(=O)[C@@H](O)[C@H](Cc2ccccc2)NC(=O)c2cccc3c2CCN3)CSC1(C)C` [Example B45, 2,3-Dihydro-1H-indole-4-carboxylic acid [(1S,2S)-1-benzyl-3-((R)-5,5-dimethyl-4-propylcarbamoyl-thiazoldin-3-yl)-2-hydroxy-3-oxo-propyl]-amide], the EC50 in experiment [1] (setting [4]) is 572 nM. The Ki in experiment [2] (setting [5]) was 1.1 nM.
As to `Cc1c(O)cccc1C(=O)N[C@@H](Cc1ccccc1)[C@H](O)C(=O)N1CSC(C)(C)[C@H]1C(=O)NCc1ccc2c(c1)OC(F)(F)O2` [Example A59, (R)-3-((2S,3S)-2-Hydroxy-3-{[1-(3-hydroxy-2-methyl-phenyl)-methanoyl]-amino}-4-phenyl-butanoyl)-5,5-dimethyl-thiazolidine-4-carboxylic acid (2,2-difluoro-benzo[1,3]dioxol-5-ylmethyl)-amide], the EC50 in experiment [1] (Human immunodeficiency virus 1, NL43, read-out: Ave CPE EC50 (mM)) amounted to 417 nM. In experiment [2] (setting [5]), this compound gave a Ki of 0.19 nM.
`Cc1ccccc1CNC(=O)[C@@H]1C2CCC(CC2)N1C(=O)[C@@H](O)[C@H](Cc1ccccc1)NC(=O)c1cccc(O)c1C`: in experiment [1] (setting [6]), the half-maximal effective concentration (EC50) is at least 3200 nM. This compound also gave a Ki in experiment [2] (Ki, unit inferred) of 9.8 nM.
Consider `CC1(C)SCN(C(=O)[C@@H](O)[C@H](Cc2ccccc2)NC(=O)O[C@H]2CCOC2)[C@@H]1C(=O)NCC1CC1` [Example B26, {(1S,2S)-1-Benzyl-3-[(R)-4-(cyclopropylmethyl-carbamoyl)-5,5-dimethyl-thiazolidin-3-yl]-2-hydroxy-3-oxo-propyl}-carbamic acid (S)-(tetrahydro-furan-3-yl) ester], for which the EC50 in experiment [1] (setting [4]) was determined as 348 nM. This compound yielded a Ki in experiment [2] (setting [5]) of 2.1 nM.
The like results for `CC1(C)SCN(C(=O)[C@@H](O)[C@H](Cc2ccccc2)NC(=O)c2cccc3c2CCN3)[C@@H]1C(=O)N[C@@H]1C=CCCC1` [Example B41, 2,3-Dihydro-1H-indole-carboxylic acid {(1S,2S)-1-benzyl-3-[(R)-4-((S)-cyclohex-2-enylcarbamoyl)-5,5-dimethyl-thiazolidin-3-yl]-2-hydroxy-3-oxo-propyl}-amide] were, in that order, 268 nM and 0.11 nM.
The like results for `Cc1c(O)cccc1C(=O)N[C@@H](Cc1ccccc1)[C@H](O)C(=O)N1CSC(C)(C)[C@H]1C(=O)NCc1cc2ccccc2[nH]1` [Example A61, (R)-3-[(2S,3S)-2-Hydroxy-3-(3-hydroxy-2-methyl-benzoylamino)-4-phenyl-butyryl]-5,5-dimethyl-thiazolidine-4-carboxylic acid (1H-indol-2-ylmethyl)-amide] were, in that order, 1060 nM and 0.99 nM.
The like results for `Cc1cccc(C)c1OCC(=O)N[C@@H](Cc1ccccc1)[C@H](O)C(=O)N1CSC(C)(C)[C@H]1C(=O)NCC1CC1` [Example B27, (R)-3-{(2S,3S)-3-[2-(2,6-Dimethyl-phenoxy)-ethanoylamino]-2-hydroxy-4-phenyl-butanoyl}-5,5-dimethyl-thiazolidine-4-carboxylic acid cyclopropylmethyl-amide] were, in that order, 506 nM and 0.5 nM.
In the case of `COc1cccc(CNC(=O)[C@@H]2CC(F)(F)CN2C(=O)[C@@H](O)[C@H](Cc2ccccc2)NC(=O)c2cccc(O)c2C)c1` [Example C12, (S)-4,4-Difluoro-1-[(2S,3S)-2-hydroxy-3-(3-hydroxy-2-methyl-benzoylamino)-4-phenyl-butyryl]-pyrrolidine-2-carboxylic acid 3-methoxy-benzylamide], the EC50 in experiment [1] (setting [4]) came out at 1770 nM. Besides, in experiment [2] (setting [5]), affinity was put at a Ki of 2.7 nM.
`Cc1c(O)cccc1C(=O)N[C@@H](Cc1ccccc1)[C@H](O)C(=O)N1CSC(C)(C)[C@H]1C(=O)N[C@H]1CC1c1ccccc1` (stereo partly shown): the EC50 in experiment [1] (setting [6]) is 1330 nM. The Ki in experiment [2] (Ki, unit inferred) came to 17.2 nM.
As to `Cc1c(O)cccc1C(=O)N[C@@H](Cc1ccccc1)[C@H](O)C(=O)N1CSC(C)(C)[C@H]1C(=O)NC[C@@H]1CCCO1` [Example A37, (R)-3-((2S,3S)-2-Hydroxy-3-{[1-(3-hydroxy-2-methyl-phenyl)-methanoyl]-amino}-4-phenyl-butanoyl)-5,5-dimethyl-thiazolidine-4-carboxylic acid (tetrahydro-furan-2-ylmethyl)-amide], the EC50 in experiment [1] (setting [4]) was 416 nM. For the same compound, affinity in experiment [2] (setting [5]) was put at a Ki of 3.7 nM.
The like results for `Cc1c(O)cccc1C(=O)N[C@@H](Cc1ccccc1)[C@H](O)C(=O)N1CSC(C)(C)[C@H]1C(=O)NC1CC1c1ccccc1` (mixture of isomers) [Example A28, (R)-3-((2S,3S)-2-Hydroxy-3-{[1-(3-hydroxy-2-methyl-phenyl)-methanoyl]-amino}-4-phenyl-butanoyl)-5,5-dimethyl-thiazolidine-4-carboxylic acid (2-phenyl-cyclopropyl)-amide] were, in that order, 327 nM and 3.4 nM.
The like results for `CCC(C)C(=O)NC(Cc1ccccc1)C(O)C(=O)N1CSC(C)(C)[C@H]1C(=O)NCc1ccccc1C` (stereo partly drawn) [Example B65, 3-[(2S,3S)-2-Hydroxy-3-((S)-2-methyl-butyrylamino)-4-phenyl-butyryl]-5,5-dimethyl-thiazolidine-4-carboxylic acid 2-methyl-benzylamide] were, in that order, 1640 nM and 4.9 nM.
In the case of `Cc1ccccc1CNC(=O)[C@H]1N(C(=O)[C@@H](O)[C@H](Cc2ccccc2)NC(=O)OCc2ccccc2)CSC1(C)C`, in experiment [1] (setting [6]), the EC50 worked out at 4220 nM. In addition, the Ki in experiment [2] (Ki, unit inferred) amounted to 1.4 nM.
The like results for `CCCCOC(=O)N[C@@H](Cc1ccccc1)[C@H](O)C(=O)N1CSC(C)(C)C1C(=O)NCc1ccccc1C` (stereo partly shown) were, in that order, 1760 nM and 7.6 nM.
In the case of `Cc1c(O)cccc1C(=O)N[C@@H](Cc1ccccc1)[C@H](O)C(=O)N1CC(F)(F)C(C)(C)[C@H]1C(=O)NCc1ccco1` [Example C20, (S)-4,4-Difluoro-1-[(2S,3S)-2-hydroxy-3-(3-hydroxy-2-methyl-benzoylamino)-4-phenyl-butyryl]-3,3-dimethyl-pyrrolidine-2-carboxylic acid (furan-2-ylmethyl)-amide], in experiment [1] (setting [4]), the EC50 amounted to 35 nM. For the same compound, the Ki in experiment [2] (setting [5]) was below 0.1 nM.
As for `Cc1ccccc1CNC(=O)[C@H]1N(C(=O)[C@@H](O)[C@H](Cc2ccccc2)NC(=O)COc2c(C)cccc2C)CC(F)(F)C1(C)C` [Example C46, (S)-1-{(2S,3S)-3-[2-(2,6-Dimethyl-phenoxy)-acetylamino]-2-hydroxy-4-phenyl-butyryl}-4,4-difluoro-3,3-dimethyl-pyrrolidine-2-carboxylic acid 2-methyl-benzylamide], the EC50 in experiment [1] (setting [4]) amounted to 407 nM. For the same compound, in experiment [2] (setting [5]), the Ki was below 0.1 nM.
